The source made the active and inactive calls. The rule behind the calls is not given here.
How the values were obtained:
[1] = target: Serine/threonine-protein kinase 32B (Homo sapiens) (UniProt Q9NY57)
[2] = target: RAC-alpha serine/threonine-protein kinase (Homo sapiens) (UniProt P31749)
[3] = target: SRSF protein kinase 3 (Homo sapiens) (UniProt Q9UPE1)
[4] = target: SNF-related serine/threonine-protein kinase (Homo sapiens) (UniProt Q9NRH2)
[5] = target: Hepatocyte growth factor receptor (Homo sapiens) (UniProt P08581)
[6] = target: Platelet-derived growth factor receptor beta (Homo sapiens) (UniProt P09619)
[7] = target: Rho-associated protein kinase 1 (Homo sapiens) (UniProt Q13464)
[8] = target: Ribosomal protein S6 kinase alpha-4 (Homo sapiens) (UniProt O75676)
[9] = target: Phosphatidylinositol 3-kinase C2 domain-containing subunit gamma (Homo sapiens) (UniProt O75747)
[10] = target: Cyclin-dependent kinase 2 (Homo sapiens) (UniProt P24941)
[11] = target: Ribosomal protein S6 kinase alpha-2 (Homo sapiens) (UniProt Q15349)
[12] = target: Myosin-IIIb (Homo sapiens) (UniProt Q8WXR4)
[13] = target: Mitogen-activated protein kinase 13 (Homo sapiens) (UniProt O15264)
[14] = target: Cyclin-dependent kinase 15 (Homo sapiens) (UniProt Q96Q40)
[15] = target: Serine/threonine-protein kinase 4 (Homo sapiens) (UniProt Q13043)
[16] = target: Muscle, skeletal receptor tyrosine-protein kinase (Homo sapiens) (UniProt O15146)
[17] = target: Serine/threonine-protein kinase RIO3 (Homo sapiens) (UniProt O14730)
[18] = target: Ephrin type-A receptor 2 (Homo sapiens) (UniProt P29317)
[19] = target: Ephrin type-B receptor 3 (Homo sapiens) (UniProt P54753)
[20] = target: Serine/threonine-protein kinase 33 (Homo sapiens) (UniProt Q9BYT3)
[21] = target: Calcium/calmodulin-dependent protein kinase type II subunit beta (Homo sapiens) (UniProt Q13554)
[22] = target: Interleukin-1 receptor-associated kinase 3 (Homo sapiens) (UniProt Q9Y616)
[23] = target: Protein-tyrosine kinase 2-beta (Homo sapiens, UniProt Q14289); experiment: Binding assay (PTK2B)
[24] = target: Tyrosine-protein kinase ZAP-70 (Homo sapiens) (UniProt P43403)
[25] = target: Serine/threonine-protein kinase MRCK gamma (Homo sapiens) (UniProt Q6DT37)
[26] = target: Mitogen-activated protein kinase 3 (Homo sapiens) (UniProt P27361)
[27] = target: Interleukin-1 receptor-associated kinase 1 (Homo sapiens) (UniProt P51617)
[28] = target: Mitogen-activated protein kinase 15 (Homo sapiens) (UniProt Q8TD08)
[29] = target: Phosphatidylinositol 4,5-bisphosphate 3-kinase catalytic subunit gamma isoform (Homo sapiens) (UniProt P48736)
[30] = target: Tyrosine-protein kinase receptor UFO (Homo sapiens) (UniProt P30530)
[31] = target: Dual specificity protein kinase CLK3 (Homo sapiens) (UniProt P49761)
[32] = target: Serine/threonine-protein kinase Sgk2 (Homo sapiens) (UniProt Q9HBY8)
[33] = target: LIM domain kinase 1 (Homo sapiens) (UniProt P53667)
[34] = target: Sodium-dependent noradrenaline transporter (Homo sapiens) (UniProt P23975); settings: Compound concentration 10.0 uM
[35] = target: Serine/threonine-protein kinase VRK2 (Homo sapiens) (UniProt Q86Y07)
[36] = target: Epithelial discoidin domain-containing receptor 1 (Homo sapiens) (UniProt Q08345)
[37] = target: LIM domain kinase 2 (Homo sapiens) (UniProt P53671)
[38] = target: Casein kinase I isoform gamma-1 (Homo sapiens) (UniProt Q9HCP0)
[39] = target: Serine/threonine-protein kinase/endoribonuclease IRE1 (Homo sapiens) (UniProt O75460)
[40] = target: Sigma non-opioid intracellular receptor 1 (Homo sapiens) (UniProt Q99720); settings: Compound concentration 10.0 uM
[41] = target: Serine/threonine-protein kinase mTOR (Homo sapiens) (UniProt P42345)
[42] = target: MAP kinase-interacting serine/threonine-protein kinase 1 (Homo sapiens) (UniProt Q9BUB5)
[43] = tested on: Receptor-type tyrosine-protein kinase FLT3 (Homo sapiens), P36888 [D835H]
[44] = tested on: Epidermal growth factor receptor (Homo sapiens), P00533 [G719C]
[45] = target: Peripheral plasma membrane protein CASK (Homo sapiens) (UniProt O14936)
[46] = Compound concentration 100.0 nM
[47] = Compound concentration 1000.0 nM

Sequence of Protein-tyrosine kinase 2-beta (Q14289 whole entry): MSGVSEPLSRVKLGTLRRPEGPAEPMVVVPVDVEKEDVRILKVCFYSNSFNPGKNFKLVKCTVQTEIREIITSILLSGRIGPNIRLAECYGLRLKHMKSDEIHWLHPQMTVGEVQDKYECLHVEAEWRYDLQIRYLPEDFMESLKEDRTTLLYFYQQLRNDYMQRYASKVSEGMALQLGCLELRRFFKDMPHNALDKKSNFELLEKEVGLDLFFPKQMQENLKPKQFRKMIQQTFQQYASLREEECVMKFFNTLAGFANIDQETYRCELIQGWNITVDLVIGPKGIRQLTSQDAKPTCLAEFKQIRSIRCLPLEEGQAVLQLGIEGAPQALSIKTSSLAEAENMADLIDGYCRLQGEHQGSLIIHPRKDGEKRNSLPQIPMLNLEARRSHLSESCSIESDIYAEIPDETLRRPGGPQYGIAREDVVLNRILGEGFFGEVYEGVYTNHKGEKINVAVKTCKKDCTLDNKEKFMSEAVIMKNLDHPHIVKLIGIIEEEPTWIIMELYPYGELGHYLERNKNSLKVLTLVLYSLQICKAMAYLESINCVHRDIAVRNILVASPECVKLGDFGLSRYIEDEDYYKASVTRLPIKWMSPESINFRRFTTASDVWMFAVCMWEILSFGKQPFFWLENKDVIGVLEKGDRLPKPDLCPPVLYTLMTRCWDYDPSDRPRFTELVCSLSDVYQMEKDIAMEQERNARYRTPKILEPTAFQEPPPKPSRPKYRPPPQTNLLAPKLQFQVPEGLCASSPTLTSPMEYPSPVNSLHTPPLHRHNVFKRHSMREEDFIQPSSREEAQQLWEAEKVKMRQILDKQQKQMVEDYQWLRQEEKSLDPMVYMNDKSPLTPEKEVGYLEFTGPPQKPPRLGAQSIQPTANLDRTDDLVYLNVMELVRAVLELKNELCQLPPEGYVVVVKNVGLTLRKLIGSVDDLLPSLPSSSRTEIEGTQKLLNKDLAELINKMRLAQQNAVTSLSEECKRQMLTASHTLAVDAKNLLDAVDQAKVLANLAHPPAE
Sequence of Platelet-derived growth factor receptor beta (Homo sapiens) (P09619 whole entry): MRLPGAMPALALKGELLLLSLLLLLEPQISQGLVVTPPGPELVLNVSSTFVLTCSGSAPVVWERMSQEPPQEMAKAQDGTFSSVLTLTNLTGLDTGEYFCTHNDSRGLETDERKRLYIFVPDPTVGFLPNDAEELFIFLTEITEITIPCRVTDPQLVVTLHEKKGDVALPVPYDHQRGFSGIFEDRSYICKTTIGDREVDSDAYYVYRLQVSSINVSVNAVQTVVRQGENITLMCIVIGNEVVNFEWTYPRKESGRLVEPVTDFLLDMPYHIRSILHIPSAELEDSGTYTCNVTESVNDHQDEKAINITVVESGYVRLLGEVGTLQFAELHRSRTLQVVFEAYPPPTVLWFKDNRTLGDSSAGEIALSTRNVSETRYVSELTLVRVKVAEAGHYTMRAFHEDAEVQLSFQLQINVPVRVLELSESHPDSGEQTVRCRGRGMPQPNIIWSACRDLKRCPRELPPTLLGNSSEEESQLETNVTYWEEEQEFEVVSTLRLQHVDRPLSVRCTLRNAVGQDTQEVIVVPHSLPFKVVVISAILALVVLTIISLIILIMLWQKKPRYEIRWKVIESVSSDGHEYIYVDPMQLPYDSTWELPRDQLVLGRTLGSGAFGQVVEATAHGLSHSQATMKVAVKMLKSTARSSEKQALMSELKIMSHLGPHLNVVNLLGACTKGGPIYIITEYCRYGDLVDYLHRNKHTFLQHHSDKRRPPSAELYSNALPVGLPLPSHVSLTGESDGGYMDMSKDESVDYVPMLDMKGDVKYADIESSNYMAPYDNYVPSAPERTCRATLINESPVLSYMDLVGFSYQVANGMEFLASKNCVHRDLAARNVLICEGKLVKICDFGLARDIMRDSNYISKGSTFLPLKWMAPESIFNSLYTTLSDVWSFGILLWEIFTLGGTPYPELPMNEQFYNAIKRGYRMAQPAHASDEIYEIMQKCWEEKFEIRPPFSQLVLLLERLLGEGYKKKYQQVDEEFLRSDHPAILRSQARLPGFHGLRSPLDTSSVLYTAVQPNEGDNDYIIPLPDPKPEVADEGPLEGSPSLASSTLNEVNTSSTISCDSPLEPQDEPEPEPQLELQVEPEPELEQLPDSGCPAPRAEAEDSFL
Sequence of RAC-alpha serine/threonine-protein kinase (Homo sapiens) (P31749 whole entry): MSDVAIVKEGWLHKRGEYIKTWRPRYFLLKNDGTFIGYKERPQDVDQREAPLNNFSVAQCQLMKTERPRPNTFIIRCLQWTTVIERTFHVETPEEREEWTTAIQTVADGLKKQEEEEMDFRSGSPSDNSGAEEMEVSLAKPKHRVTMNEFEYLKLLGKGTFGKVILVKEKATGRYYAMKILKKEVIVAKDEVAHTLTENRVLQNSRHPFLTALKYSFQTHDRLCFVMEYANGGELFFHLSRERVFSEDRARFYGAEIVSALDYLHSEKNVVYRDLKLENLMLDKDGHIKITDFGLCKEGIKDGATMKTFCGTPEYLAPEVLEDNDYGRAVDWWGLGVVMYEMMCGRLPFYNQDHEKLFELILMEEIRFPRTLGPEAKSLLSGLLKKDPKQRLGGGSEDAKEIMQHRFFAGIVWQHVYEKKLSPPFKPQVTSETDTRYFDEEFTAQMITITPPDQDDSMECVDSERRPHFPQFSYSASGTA
Sequence of Serine/threonine-protein kinase Sgk2 (Homo sapiens) (Q9HBY8 whole entry, the tested form may be a part): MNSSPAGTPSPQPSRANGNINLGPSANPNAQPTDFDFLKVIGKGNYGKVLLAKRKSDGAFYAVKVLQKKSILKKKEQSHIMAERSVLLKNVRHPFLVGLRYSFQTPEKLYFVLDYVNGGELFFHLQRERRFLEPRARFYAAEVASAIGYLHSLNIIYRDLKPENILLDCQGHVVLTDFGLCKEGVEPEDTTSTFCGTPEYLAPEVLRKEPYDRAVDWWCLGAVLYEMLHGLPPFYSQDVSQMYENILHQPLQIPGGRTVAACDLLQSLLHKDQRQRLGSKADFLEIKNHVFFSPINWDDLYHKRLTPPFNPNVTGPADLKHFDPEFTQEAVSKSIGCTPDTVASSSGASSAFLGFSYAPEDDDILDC
Sequence of Ribosomal protein S6 kinase alpha-4 (Homo sapiens) (O75676 whole entry, looked up, the tested form may be a part): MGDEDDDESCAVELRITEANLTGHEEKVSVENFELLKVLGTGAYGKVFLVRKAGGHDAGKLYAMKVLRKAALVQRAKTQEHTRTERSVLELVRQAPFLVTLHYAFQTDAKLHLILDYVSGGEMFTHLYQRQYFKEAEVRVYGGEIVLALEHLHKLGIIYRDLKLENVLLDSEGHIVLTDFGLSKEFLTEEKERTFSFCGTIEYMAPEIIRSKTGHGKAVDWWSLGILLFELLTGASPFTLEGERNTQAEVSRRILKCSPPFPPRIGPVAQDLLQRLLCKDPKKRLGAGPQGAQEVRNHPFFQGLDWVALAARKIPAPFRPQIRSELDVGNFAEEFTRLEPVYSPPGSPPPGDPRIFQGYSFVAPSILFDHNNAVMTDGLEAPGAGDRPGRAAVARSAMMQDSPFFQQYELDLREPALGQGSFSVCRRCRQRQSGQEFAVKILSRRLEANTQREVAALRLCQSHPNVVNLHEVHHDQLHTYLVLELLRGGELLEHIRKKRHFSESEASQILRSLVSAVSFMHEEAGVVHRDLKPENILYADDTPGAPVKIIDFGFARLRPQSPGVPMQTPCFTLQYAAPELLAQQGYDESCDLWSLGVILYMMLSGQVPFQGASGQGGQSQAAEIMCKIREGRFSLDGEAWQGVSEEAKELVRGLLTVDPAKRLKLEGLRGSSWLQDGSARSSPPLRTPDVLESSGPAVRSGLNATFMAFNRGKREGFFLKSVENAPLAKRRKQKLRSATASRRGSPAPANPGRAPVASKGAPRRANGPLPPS
Sequence of MAP kinase-interacting serine/threonine-protein kinase 1 (Homo sapiens) (Q9BUB5 whole entry, looked up): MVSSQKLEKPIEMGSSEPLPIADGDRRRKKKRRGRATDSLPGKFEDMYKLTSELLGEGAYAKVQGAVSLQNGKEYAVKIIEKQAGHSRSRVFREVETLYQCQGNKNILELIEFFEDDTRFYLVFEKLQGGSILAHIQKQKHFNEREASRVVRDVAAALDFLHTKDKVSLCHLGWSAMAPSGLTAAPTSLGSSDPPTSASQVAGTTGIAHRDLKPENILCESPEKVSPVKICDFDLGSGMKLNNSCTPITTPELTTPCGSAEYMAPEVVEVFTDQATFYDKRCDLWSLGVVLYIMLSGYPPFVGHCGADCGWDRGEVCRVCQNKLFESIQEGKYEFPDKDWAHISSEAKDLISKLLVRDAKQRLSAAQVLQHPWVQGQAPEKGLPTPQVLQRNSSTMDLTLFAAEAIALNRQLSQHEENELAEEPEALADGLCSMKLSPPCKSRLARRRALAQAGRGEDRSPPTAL
Sequence of Sigma non-opioid intracellular receptor 1 (Homo sapiens) (Q99720 whole entry): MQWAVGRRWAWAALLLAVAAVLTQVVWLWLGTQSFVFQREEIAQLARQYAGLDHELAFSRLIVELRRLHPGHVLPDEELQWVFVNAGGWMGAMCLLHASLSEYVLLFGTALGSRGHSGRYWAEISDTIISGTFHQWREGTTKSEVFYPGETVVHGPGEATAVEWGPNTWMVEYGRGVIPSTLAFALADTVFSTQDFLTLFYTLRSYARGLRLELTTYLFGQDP
Sequence of Serine/threonine-protein kinase 4 (Homo sapiens) (Q13043 whole entry): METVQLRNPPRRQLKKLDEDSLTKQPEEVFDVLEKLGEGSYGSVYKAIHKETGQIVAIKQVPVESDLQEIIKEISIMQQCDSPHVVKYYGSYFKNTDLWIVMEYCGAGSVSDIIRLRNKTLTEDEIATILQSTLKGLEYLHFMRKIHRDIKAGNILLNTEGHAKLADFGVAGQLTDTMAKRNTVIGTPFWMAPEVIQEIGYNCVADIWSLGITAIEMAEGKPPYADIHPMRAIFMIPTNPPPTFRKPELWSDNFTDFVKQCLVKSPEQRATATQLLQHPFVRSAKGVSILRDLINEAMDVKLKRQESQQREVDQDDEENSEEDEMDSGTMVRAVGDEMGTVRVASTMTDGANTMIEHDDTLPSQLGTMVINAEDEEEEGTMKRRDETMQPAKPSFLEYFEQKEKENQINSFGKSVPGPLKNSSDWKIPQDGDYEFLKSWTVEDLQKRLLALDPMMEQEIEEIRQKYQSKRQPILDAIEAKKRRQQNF

CNC(=O)c1ccc(Nc2ncc(C(F)(F)F)c(NCc3nccnc3N(C)S(C)(=O)=O)n2)cc1 [DEFACTINIB]
residual activity [1, 46]: 97% | residual activity [2, 46]: 100% | residual activity [3, 46]: 100% | residual activity [4, 46]: 100% | residual activity [5, 46]: 66% | residual activity [6, 46]: 83% | residual activity [7, 46]: 100% | residual activity [8, 46]: 57% | residual activity [9, 46]: 92% | residual activity [10, 46]: 97% | residual activity [11, 46]: 61% | residual activity [12, 46]: 100% | residual activity [13, 46]: 91% | residual activity [14, 46]: 67% | residual activity [15, 46]: 97% | residual activity [16, 46]: 100% | residual activity [17, 46]: 55% | residual activity [18, 46]: 86% | residual activity [19, 46]: 87% | residual activity [20, 46]: 68% | residual activity [21, 46]: 86% | residual activity [22, 46]: 70% | IC50 [23]: 0.2 nM (active) | residual activity [24, 46]: 100% | residual activity [25, 46]: 80% | residual activity [26, 46]: 86% | residual activity [27, 46]: 77% | residual activity [28, 46]: 40% | residual activity [29, 46]: 100% | residual activity [30, 46]: 51% | residual activity [31, 46]: 97% | residual activity [32, 46]: 96% | residual activity [33, 46]: 100% | inhibition [34]: 7.81% | residual activity [35, 46]: 85% | residual activity [36, 46]: 100% | residual activity [37, 46]: 87% | residual activity [38, 46]: 82% | residual activity [39, 46]: 75% | inhibition [40]: 40.1% | residual activity [41, 46]: 100% | residual activity [42, 46]: 83% | residual activity [43, 46]: 9.8% | residual activity [44, 46]: 94% | residual activity [45, 46]: 88%

CN(c1ccnc(CNc2nc(Nc3ccc4c(c3)CC(=O)N4)ncc2C(F)(F)F)n1)S(C)(=O)=O [PF-00911705]
residual activity [1, 47]: 100% | residual activity [2, 47]: 100% | residual activity [3, 47]: 11% | residual activity [4, 47]: 85% | residual activity [5, 47]: 14% | residual activity [6, 47]: 69% | residual activity [7, 47]: 49% | residual activity [8, 47]: 72% | residual activity [9, 47]: 77% | residual activity [10, 47]: 89% | residual activity [11, 47]: 95% | residual activity [12, 47]: 68% | residual activity [13, 47]: 100% | residual activity [14, 47]: 63% | residual activity [15, 47]: 100% | residual activity [16, 47]: 92% | residual activity [17, 47]: 8.5% | residual activity [18, 47]: 80% | residual activity [19, 47]: 95% | residual activity [20, 47]: 15% | residual activity [21, 47]: 86% | residual activity [22, 47]: 11% | IC50 [23]: 721 nM (not active) | residual activity [24, 47]: 61% | residual activity [25, 47]: 93% | residual activity [26, 47]: 96% | residual activity [27, 47]: 13% | residual activity [28, 47]: 4.8% | residual activity [29, 47]: 100% | residual activity [30, 47]: 21% | residual activity [31, 47]: 12% | residual activity [32, 47]: 75% | residual activity [33, 47]: 97% | inhibition [34]: 3.15% | residual activity [35, 47]: 78% | residual activity [36, 47]: 80% | residual activity [37, 47]: 94% | residual activity [38, 47]: 100% | residual activity [39, 47]: 49% | inhibition [40]: 23.1% | residual activity [41, 47]: 94% | residual activity [42, 47]: 45% | residual activity [43, 47]: 15% | residual activity [44, 47]: 86% | residual activity [45, 47]: 85%
